Columns and labels:
Assay type in all cases: in vivo
[1] = tested on: Beet Armyworm (Spodoptera exigua, LAPHEG); assay: Bioassay on Beet Armyworm (BAW), 128-well diet tray assay; settings: 168 h, 50 μg/cm^2 on artificial diet, second instar larvae, five to seven days, 25° C., read-out: BAW % Control (or Mortality) rating
Method in brief: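 Artificial diet was surface-treated with 50 μg/cm^2 of compound in 90:10 acetone-water and dried; one to five second-instar larvae were placed per well, eight wells per treatment. Held at 25 °C, 14:10 light-dark, for five to seven days, then percent mortality per well was averaged.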

[2] = tested on: Cabbage Looper (Trichoplusia ni, TRIPNI); assay: Bioassay on Cabbage Looper (CL), 128-well diet tray assay; settings: 168 h, 50 μg/cm^2 on artificial diet, second instar larvae, five to seven days, 25° C., read-out: CL % Control (or Mortality) rating
Method in brief: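 Diet-tray assay: 1–5 second-instar larvae per well on artificial diet surface-treated with 50 μg/cm^2 compound (90:10 acetone-water, dried), eight wells per compound. Held at 25° C., 14:10 light-dark for five to seven days; percent mortality per well averaged across the eight wells.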

[3] = tested on: Green Peach Aphid (Myzus persicae, MYZUPE); assay: Bioassay on Green Peach Aphid (GPA), foliar spray on infested cabbage seedlings; settings: 72 h, 200 ppm foliar spray, three days, Abbott corrected % control, read-out: GPA % Control (or Mortality) rating
Protocol: Example B: Bioassays on Green Peach Aphid (Myzus Persicae, MYZUPE) (“GPA”)
Certain molecules disclosed in this document were tested against GPA using procedures described in the following example. In the reporting of the results, the “GPA & YFM Rating Table” was used (See Table Section).
Cabbage seedlings grown in 3-inch pots, with 2-3 small (3-5 cm) true leaves, were used as test substrate. The seedlings were infested with 20-50 GPA (wingless adult and nymph stages) one day prior to chemical application. Four pots with individual seedlings were used for each treatment. Test molecules (2 mg) were dissolved in 2 mL of acetone/methanol (1:1) solvent, forming stock solutions of 1000 ppm test molecule. The stock solutions were diluted 5× with 0.025% Tween 20 in water to obtain the solution at 200 ppm test molecule. A hand-held aspirator-type sprayer was used for spraying a solution to both sides of […] leaves until runoff. Reference plants (solvent check) were sprayed with the diluent only containing 20% by volume of acetone/methanol (1:1) solvent. Treated plants were held in a holding room for three days at approximately 25° C. and ambient relative humidity (RH) prior to grading. Evaluation was conducted by counting the number of live aphids per plant under a microscope. Percent Control was measured by using Abbott's correction formula (W. S. Abbott, “A Method of Computing the Effectiveness of an Insecticide” J. Econ. Entomol. 18 (1925), pp. 265-267) as follows. Corrected % Control=100*(X−Y)/X • where • X=No. of live aphids on solvent check plants and • Y=No. of live aphids on treated plants

[4] = tested on: Yellow Fever Mosquito (Aedes aegypti, AEDSAE); settings: about 1 day-old larvae, 3 days, room temperature, scored on mortality
Method in brief: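 Compounds from DMSO master plates (4000 ppm stock) diluted with 90:10 water:acetone, then about 1-day-old larvae in liver-powder water added. Held covered at room temperature for 3 days; each well scored for mortality.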

Row | SMILES | mortality at 50 µg/cm2 [1] [%] | mortality at 50 µg/cm2 [2] [%] | mortality at 200 ppm [3] [%] | YFM % Control (or Mortality) rating [4]
1 | C[C@H](CSCC(F)(F)F)NC(=O)c1ccc(/C(F)=C/C(c2cc(Cl)c(Cl)c(Cl)c2)C(F)(F)F)cc1C(F)(F)F (stereo partly drawn) [F1, 4-((Z)-1,4,4,4-tetrafluoro-3-(3,4,5-trichlorophenyl)but-1-en-1-yl)-N—((R)-1-((2,2,2-trifluoroethyl)thio)propan-2-yl)-2-(trifluoromethyl)benzamide] | 50 to 100 | 50 to 100 | 0 to 80 | 
2 | C[C@H](CS(=O)(=O)CC(F)(F)F)NC(=O)c1ccc(/C(F)=C/C(c2cc(Cl)c(Cl)c(Cl)c2)C(F)(F)F)cc1C(F)(F)F (stereo partly drawn) [F2, 4-((Z)-1,4,4,4-tetrafluoro-3-(3,4,5-trichlorophenyl)but-1-en-1-yl)-N—((R)-1-((2,2,2-trifluoroethyl)sulfonyl)propan-2-yl)-2-(trifluoromethyl)benzamide] | 50 to 100 | 50 to 100 | 0 to 80 | 
3 | C[C@H](C[S+]([O-])CC(F)(F)F)NC(=O)c1ccc(/C(F)=C/C(c2cc(Cl)c(Cl)c(Cl)c2)C(F)(F)F)cc1C(F)(F)F (stereo partly drawn) [F3, 4-((Z)-1,4,4,4-tetrafluoro-3-(3,4,5-trichlorophenyl)but-1-en-1-yl)-N-((2R)-1-((2,2,2-trifluoroethyl)sulfinyl)propan-2-yl)-2-(trifluoromethyl)benzamide] | 50 to 100 | 50 to 100 | 0 to 80 | 
4 | C[C@H](CSCC(F)(F)F)NC(=O)c1ccc(/C(F)=C/C(c2cc(Br)c(Cl)c(Br)c2)C(F)(F)F)cc1C(F)(F)F (stereo partly drawn) [F21, 4-((Z)-3-(3,5-Dibromo-4-chlorophenyl)-1,4,4,4-tetrafluorobut-1-en-1-yl)-N—((R)-1-((2,2,2-trifluoroethyl)thio)propan-2-yl)-2-(trifluoromethyl)benzamide] | 50 to 100 | 50 to 100 | 80 to 100 | A (80-100)
5 | C[C@H](CS(=O)(=O)CC(F)(F)F)NC(=O)c1ccc(/C(F)=C/C(c2cc(Br)c(Cl)c(Br)c2)C(F)(F)F)cc1C(F)(F)F (stereo partly drawn) [F22, 4-((Z)-3-(3,5-Dibromo-4-chlorophenyl)-1,4,4,4-tetrafluorobut-1-en-1-yl)-N—((R)-1-((2,2,2-trifluoroethyl)sulfonyl)propan-2-yl)-2-(trifluoromethyl)benzamide] | 50 to 100 | 50 to 100 | 0 to 80 | A (80-100)
6 | CCS(=O)(=O)C[C@@H](C)NC(=O)c1ccc(/C(F)=C/C(c2cc(Br)cc(Br)c2)C(F)(F)F)cc1C(F)(F)F (stereo partly drawn) [F42, 4-((Z)-3-(3,5-Dibromophenyl)-1,4,4,4-tetrafluorobut-1-en-1-yl)-N—((R)-1-(ethylsulfonyl)propan-2-yl)-2-(trifluoromethyl)benzamide] | 50 to 100 | 50 to 100 | 0 to 80 | A (80-100)
7 | CCS(=O)(=O)C[C@@H](C)NC(=O)c1ccc(/C(F)=C/C(c2cc(Cl)c(F)c(Cl)c2)C(F)(F)F)cc1C(F)(F)F (stereo partly drawn) [F43, 4-((Z)-3-(3,5-Dichloro-4-fluorophenyl)-1,4,4,4-tetrafluorobut-1-en-1-yl)-N—((R)-1-(ethylsulfonyl)propan-2-yl)-2-(trifluoromethyl)benzamide] | 50 to 100 | 50 to 100 | 80 to 100 | A (80-100)
8 | CCS(=O)(=O)C[C@@H](C)NC(=O)c1ccc(/C(F)=C/C(c2ccc(Cl)c(Cl)c2)C(F)(F)F)cc1C(F)(F)F (stereo partly drawn) [F46, 4-((Z)-3-(3,4-Dichlorophenyl)-1,4,4,4-tetrafluorobut-1-en-1-yl)-N—((R)-1-(ethylsulfonyl)propan-2-yl)-2-(trifluoromethyl)benzamide] | 50 to 100 | 50 to 100 | 0 to 80 | B (More than 0-Less than 80)
9 | C[C@H](C[S+](C)[O-])NC(=O)c1ccc(/C(F)=C/C(c2cc(Cl)c(Cl)c(Cl)c2)C(F)(F)F)cc1C(F)(F)F (stereo partly drawn) [F88, N-((2R)-1-(Methylsulfinyl)propan-2-yl)-4-((Z)-1,4,4,4-tetrafluoro-3-(3,4,5-trichlorophenyl)but-1-en-1-yl)-2-(trifluoromethyl)benzamide] | 50 to 100 | 50 to 100 | 80 to 100 | 
10 | C[C@H](CS(=O)(=O)CCC(F)(F)F)NC(=O)c1ccc(/C(F)=C/C(c2cc(Cl)c(Cl)c(Cl)c2)C(F)(F)F)cc1C(F)(F)F (stereo partly drawn) [F130, 4-((Z)-1,4,4,4-tetrafluoro-3-(3,4,5-trichlorophenyl)but-1-en-1-yl)-2-(trifluoromethyl)-N—((R)-1-((3,3,3-trifluoropropyl)sulfonyl)propan-2-yl)benzamide] | 50 to 100 | 50 to 100 |  | B (More than 0-Less than 80)
11 | CCC(F)(F)c1cc(Cl)cc(C(/C=C(\F)c2ccc(C(=O)N[C@H](C)CS(=O)(=O)CC(F)(F)F)c(C(F)(F)F)c2)C(F)(F)F)c1 (stereo partly drawn) [F131, 4-((Z)-3-(3-Chloro-5-(1,1-difluoropropyl)phenyl)-1,4,4,4-tetrafluorobut-1-en-1-yl)-N—((R)-1-((2,2,2-trifluoroethyl)sulfonyl)propan-2-yl)-2-(trifluoromethyl)benzamide] | 50 to 100 | 50 to 100 |  | A (80-100)
12 | CCc1ccc(C(/C=C(\F)c2ccc(C(=O)N[C@H](C)CS(=O)(=O)CC(F)(F)F)c(C(F)(F)F)c2)C(F)(F)F)cc1Cl (stereo partly drawn) [F141, 4-((Z)-3-(3-Chloro-4-ethylphenyl)-1,4,4,4-tetrafluorobut-1-en-1-yl)-N—((R)-1-((2,2,2-trifluoroethyl)sulfonyl)propan-2-yl)-2-(trifluoromethyl)benzamide] | 50 to 100 | 50 to 100 |  | D (No activity noticed in this bioassay)
13 | COc1ccc(C(/C=C(\F)c2ccc(C(=O)N[C@H](C)CS(=O)(=O)CC(F)(F)F)c(C(F)(F)F)c2)C(F)(F)F)cc1Cl (stereo partly drawn) [F142, 4-((Z)-3-(3-Chloro-4-methoxyphenyl)-1,4,4,4-tetrafluorobut-1-en-1-yl)-N—((R)-1-((2,2,2-trifluoroethyl)sulfonyl)propan-2-yl)-2-(trifluoromethyl)benzamide] | 50 to 100 | 50 to 100 |  | B (More than 0-Less than 80)
14 | CCCC(F)(F)c1cc(Cl)cc(C(/C=C(\F)c2ccc(C(=O)N[C@H](C)CS(=O)(=O)CC(F)(F)F)c(C(F)(F)F)c2)C(F)(F)F)c1 (stereo partly drawn) [F143, 4-((Z)-3-(3-Chloro-5-(1,1-difluorobutyl)phenyl)-1,4,4,4-tetrafluorobut-1-en-1-yl)-N—((R)-1-((2,2,2-trifluoroethyl)sulfonyl)propan-2-yl)-2-(trifluoromethyl)benzamide] | 50 to 100 | 50 to 100 |  | D (No activity noticed in this bioassay)
15 | C[C@H](CS(=O)(=O)CC(F)(F)F)NC(=O)c1ccc(/C(F)=C/C(c2cc(Cl)c(Cl)c(Cl)c2)C(F)(F)F)c2ccccc12 (stereo partly drawn) [PF1, 4-((Z)-1,4,4,4-Tetrafluoro-3-(3,4,5-trichlorophenyl)but-1-en-1-yl)-N—((R)-1-((2,2,2-trifluoroethyl)sulfonyl)propan-2-yl)-1-naphthamide] | 50 to 100 | 50 to 100 |  | A (80-100)
16 | C[C@H](CS(=O)(=O)CC(F)(F)F)NC(=O)c1ccc(/C(F)=C/C(c2ccc(Br)c(Cl)c2)C(F)(F)F)cc1C(F)(F)F (stereo partly drawn) [PF5, 4-((Z)-3-(4-Bromo-3-chlorophenyl)-1,4,4,4-tetrafluorobut-1-en-1-yl)-N—((R)-1-((2,2,2-trifluoroethyl)sulfonyl)propan-2-yl)-2-(trifluoromethyl)benzamide] | 50 to 100 | 50 to 100 |  | B (More than 0-Less than 80)

Reference: patent US10681908B2, “Molecules having pesticidal utility, and intermediates, compositions, and processes, related thereto” (Dow AgroSciences LLC, priority 2016, dated 2020)
